Measured values published in the NIST ThermoML archive (doi:10.1016/j.jct.2008.05.017).
Numbers after ± are expanded uncertainties.

Test: xn = mol fraction of the nth substance listed
Details: Liquid; for mass density: Bellows volumetry; for Critical density: bellows voluometer

N [ammonia] + O
Details | mass density [kg/m3]
436.56 K, 14191 kPa, x1 = 0.9098 | 263.5 ± 0.5
436.56 K, 14208 kPa, x1 = 0.9098 | 264.8 ± 0.5
436.56 K, 14217 kPa, x1 = 0.9098 | 265.4 ± 0.5
436.56 K, 14225 kPa, x1 = 0.9098 | 265.9 ± 0.5
478.58 K, 17311 kPa, x1 = 0.7757 | 284.3 ± 0.5
478.58 K, 17320 kPa, x1 = 0.7757 | 284.7 ± 0.5
478.58 K, 17329 kPa, x1 = 0.7757 | 285.1 ± 0.5
478.58 K, 17347 kPa, x1 = 0.7757 | 285.8 ± 0.4
503.06 K, 18697 kPa, x1 = 0.6808 | 294.8 ± 0.5
503.06 K, 18706 kPa, x1 = 0.6808 | 295.2 ± 0.5
503.06 K, 18715 kPa, x1 = 0.6808 | 295.6 ± 0.5
503.06 K, 18724 kPa, x1 = 0.6808 | 296 ± 0.5
503.06 K, 18733 kPa, x1 = 0.6808 | 296.3 ± 0.5
503.06 K, 18743 kPa, x1 = 0.6808 | 296.6 ± 0.5
503.06 K, 18751 kPa, x1 = 0.6808 | 297 ± 0.5

Details | Critical density [kg/m3]
x1 = 0.6808 | 294.6 ± 1
x1 = 0.7757 | 284 ± 1.2
x1 = 0.9098 | 262.9 ± 1.8
